This note sets out measurements from patent publication US20050182252A1, “Novel 2'-C-methyl nucleoside derivatives” (priority 2004, published 2005).

“Also recorded” adds a separate entry of the source.

Details of data set [1]: species or system C57BL/6 mice. The conditions noted are these: C57BL/6, mouse, in vivo, ip, 30 mg/kg. The protocol:
The liver specificity of the compound 19 prodrug was compared relative to the parent nucleoside, 2′-C-methylguanosine, and for compound 21.1 prodrug relative to its parent nucleoside, 2′-C-methyladenosine, by measuring the generation of NTP in the liver compared to nucleoside in the plasma.
Compound 19 or 2′-C-methylguanosine were administered intraperitoneally to C57BL/6 mice at a dose of 30 mg/kg based on nucleoside equivalents (30 mg/kg 2′-C-methylguanosine and 53.27 mg/kg compound 19). Compound 21.1 or 2′-C-methyladenosine were administered intravenously to C57BL/6 mice at dose of about 5.5 mg/kg nucleoside equivalents (5.5 mg/kg 2′-C-methyladenosine and 10 mg/kg compound 21.1). Plasma concentrations of 2′-C-methylguanosine, compound 19, 2′-C-methyladenosine, and compound 21.1 were determined by HPLC-UV and the liver concentrations of the 5′-triphosphate of 2′-C-methylguanosine and 2′-C-methyladenosine were measured by LC-MS using the standard ion-pairing chromatography method for triphosphate as described in Example E. Conventional SAX HPLC-UV could not differentiate between endogenous GTP and 2′-C-methylguanosine triphosphate. Since an authentic standard of 2′-C-methylguanosine triphosphate was not available, the liver concentrations of the nucleotide were approximated as described in Example E.

A further data set deals with HCV. The data set is described as follows: HCV-infected human liver slice assay (HCV RNA in culture medium). In kind it is cell-based. The conditions noted are these: for Log10 decrease in viral RNA from control at 48-72 h: HCV RNA in culture medium of HCV-infected human liver slices; for HCV RNA levels in the liver slice culture media versus control, untreated slices: in words, treatment for 72 h. The protocol:
Inhibition of HCV replication in human liver tissue was evaluated using the following assay.
Liver from a brain-dead HCV antibody-positive human patient was perfused with ice-cold Viaspan (Dupont Pharmaceutical) preservation solution and received on ice in Viaspan.
Precision-cut liver slices of ˜200-250 μm thickness and […] diameter were prepared and cultured in Waymouth's cell culture medium (Gibco, Inc.) that was supplemented with 10% fetal bovine serum and 10 mL/L Fungi-Bact at 37° C., and gassed with carbogen (95% O2, 5% CO2) at 0.75 liters/min. Tissue slices were maintained in culture for 72 h. Cell culture medium containing test compound in solution was changed on a daily basis.
At appropriate times of liver slice incubation, liver slices and medium were collected for analysis of HCV RNA (tissue and medium) and nucleotide levels (NTP). All collected media and tissue slices were maintained in liquid N2 until analysis.
Medium and tissue samples were analyzed for HCV RNA levels according to published procedures (Bonacini et. al., 1999) which utilize an automated, multicycle, polymerase chain reaction (PCR)-based technique. This assay has a lower limit of detection for HCV RNA of 100 viral copies/ml.

For the molecule `C[C@@]1(O)[C@H](O)[C@@H](CO[P@]2(=O)OCC[C@H](c3cccc(Cl)c3)O2)O[C@H]1n1cnc2c(=O)[nH]c(N)nc21` (relative stereo) [Compound 19, cis-5′-O-[4-(3-Chlorophenyl)-2-oxo-1,3,2-dioxaphosphorinan-2-yl]-2′-C-methyl-guanosine], the “Liver Targeting Index (Liver/Plasma)” value in data set [1] is 26.2. Also, the “Prodrug Improvement (Fold)” value in data set [1] was 30 Fold. In addition, the “Log10 decrease in viral RNA from control at 48-72 h” value in the data set on HCV (0.25 μM compound) was found to be 1.27 Log10; in the data set with HCV (1 μM compound), 1.61 Log10; with HCV (2.5 μM compound) it was 1.70 Log10; in the data set on HCV (25 μM compound), 1.72 Log10. For the same molecule, the “HCV RNA levels in the liver slice culture media versus control, untreated slices” value in the data set with HCV is on record as “decreased; also recorded: more effective than treatment with the nucleoside”.

On to `C[C@@]1(O)[C@H](O)[C@@H](CO)O[C@H]1n1cnc2c(=O)[nH]c(N)nc21` [2′-C-methylguanosine, reference compound], for which the “Liver Targeting Index (Liver/Plasma)” value in data set [1] is recorded as 0.87. Also, the “Log10 decrease in viral RNA from control at 48-72 h” value in the data set on HCV (0.25 μM compound) is listed as 0.51 Log10; in the data set with HCV (2.5 μM compound), 1.74 Log10; in the data set with HCV (25 μM compound), 1.48 Log10. For the same molecule, the “HCV RNA levels in the liver slice culture media versus control, untreated slices” value with HCV is listed as “decreased”.
